Values quoted from earlier work as cited in US20070184116A1, “Pharmaceutical formulation containing unmilled flutamide” (priority 2004, published 2007).

Structure (SMILES): CC(C)C(=O)Nc1ccc([N+](=O)[O-])c(C(F)(F)F)c1 [Flutamide, 2-methyl-N-[4-nitro-3-(trifluoromethyl)phenyl]propanamide]
- solubility in acid medium (acid medium, for example 0.1% hydrochloric acid (pH corresponds to gastric juice)): virtually insoluble
- solubility in water (water): virtually insoluble
